Assay results published in patent publication US6613879B1, “FAP-activated anti-tumour compounds” (Boehringer Ingelheim Pharma KG, priority 1999, dated 2003).
Residues, ends and D or L forms follow the SMILES beside them. *: point of attachment. NH(4-MeO-2-naphthyl) = COc1cc(N*)cc2ccccc12; AFC = O=c1cc(C(F)(F)F)c2ccc(N*)cc2o1; Cbz = O=C(OCc1ccccc1)*

Legend:
[1] = target: T1, FAPα dimers (Homo sapiens, UniProt Q12884); conditions: membrane overlay assay; cited from earlier work
T1 sequence (Q12884 1-760): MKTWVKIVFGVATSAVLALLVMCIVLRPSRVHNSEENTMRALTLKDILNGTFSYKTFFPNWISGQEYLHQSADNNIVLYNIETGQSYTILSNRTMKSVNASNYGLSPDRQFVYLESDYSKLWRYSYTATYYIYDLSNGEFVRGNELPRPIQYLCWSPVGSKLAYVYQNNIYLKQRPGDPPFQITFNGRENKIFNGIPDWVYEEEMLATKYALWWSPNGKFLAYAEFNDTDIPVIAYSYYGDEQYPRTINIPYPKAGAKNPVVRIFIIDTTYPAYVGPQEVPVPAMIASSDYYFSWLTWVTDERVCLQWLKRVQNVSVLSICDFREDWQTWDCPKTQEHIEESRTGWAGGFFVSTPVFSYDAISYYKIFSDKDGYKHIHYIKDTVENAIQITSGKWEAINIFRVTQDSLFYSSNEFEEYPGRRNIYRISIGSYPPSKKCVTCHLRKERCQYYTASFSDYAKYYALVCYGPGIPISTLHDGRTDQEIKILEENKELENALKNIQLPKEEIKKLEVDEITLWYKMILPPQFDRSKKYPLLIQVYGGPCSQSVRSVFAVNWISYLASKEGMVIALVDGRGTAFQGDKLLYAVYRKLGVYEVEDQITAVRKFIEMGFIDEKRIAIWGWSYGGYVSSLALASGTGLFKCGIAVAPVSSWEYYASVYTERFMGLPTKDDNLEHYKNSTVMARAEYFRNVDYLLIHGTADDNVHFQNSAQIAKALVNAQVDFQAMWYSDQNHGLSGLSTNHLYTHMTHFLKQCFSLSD

[2] = target: T2, FAPα enzyme derived from membrane extracts of the 293-I/2 transfected cells (Homo sapiens, UniProt Q12884); test: FAPα-catalyzed cleavage of 4-methoxy-β-napthylamide (MNA)-peptide conjugates, enzyme kinetics; assay type: biochemical; conditions: release of free MNA, fluorimeter 355 nm/405 nm
T2 construct: made in house; host or cells: human embryonic kidney 293 cells, clone 293-I/2, membrane extract
T2 sequence (Q12884 1-760): T1 sequence (Q12884 1-760)
Experimental: (§1) Release of free MNA from the peptides was then measured in a Cytofluor fluorimeter (Per-Septive Biosystems, Inc.) using the 355 nm excitation/405 nm emission filter set.

[3] = target: T3, FAPα (Homo sapiens, UniProt Q12884); test: Cleavage specificity of MNA-peptide conjugates, FAPα; assay type: biochemical; conditions: release of free MNA
T3 sequence (Q12884 1-760): T1 sequence (Q12884 1-760)
Experimental: as §1
(§2) Among the-known prolyl-specific serine oligopeptidase family members, the most closely related enzyme to FAPα is DPP-IV. Since active DPP-IV is found in plasma and on many different cell types, optimization of the relative (optional) selectivity of prodrug peptidics for FAPα compared to DPP-IV is necessary to reduce undesirable conversion of the prodrug at sites other than the tumor (e.g., in the plasma). To identify peptides specific for FAPα, cleavage of MNA-coupled peptides by FAPα was compared to the ability of DPP-IV to cleave the same peptide conjugates.

[4] = target: DPP-IV (Homo sapiens, UniProt P27487); test: Cleavage specificity of MNA-peptide conjugates, DPP-IV; assay type: biochemical; conditions: release of free MNA
Experimental: as §1, §2

[5] = target: T4, soluble recombinant FAPα (FAPmCD8 fusion protein) (UniProt P01731+Q12884); test: Cleavage of doxorubicin-peptide conjugates by soluble recombinant FAPα (HPLC release of free doxorubicin); assay type: biochemical, human; conditions: for Cleavage by FAP: after 20 h
T4 construct: the extracellular domain of FAPα (amino acids 27 to 760), generating a fusion protein construct, FAPmCD8; extracellular domain of murine CD8α (Genbank M12825), N-terminal 189 amino acids (N); made in house; host or cells: High Five insect cells, recombinant baculovirus (pVL1393; amplified in Sf9)
Experimental: A soluble recombinant form of FAPα protein was prepared as follows. […] The cDNAs were verified by sequencing and inserted into the pVL1393 vector. […] The culture supernatant of High Five cells infected with recombinant FAPmCD8 baculovirus for four days was collected and cleared by ultracentrifugation. FAPmCD8 fusion protein was purified from such supernatants using an anti-FAPα monoclonal antibody immobilized on activated agarose beads (Pierce Chemical, Indianapolis, Ind., USA). […] The samples were immediately neutralized with a saturated Tris solution (Sigma Chemicals, St. Louis, Mo.) and protein-containing fractions were pooled.
Doxorubicin-peptide conjugate stock solutions (5 mM) were diluted with Hepes-buffered saline pH 7.4 to a final concentration of 50 to 100 μM. Twenty μl of the resulting solution was mixed with 50 μl of purified FAPmCD8 fusion protein (approximately 20 ng) described above and 30 μl Hepes-buffered saline, pH 7.4. The mixture was allowed to incubate at 37° C. for 1 day and release of free doxorubicin was measured in the HPLC assay described. Areas under each peak were quantified using the software package above and the initial value was set to 100%. The rate of release of free doxorubicin was measured by the appearance of a peak with the same retention time as free doxorubicin under these HPLC conditions. The areas under each peak were used to calculate the relative amounts of free doxorubicin to doxorubicin-peptide conjugate.

[6] = target: T5, cell-bound FAPα (FAP-expressing cell line HT1080 clone 33) (Homo sapiens, UniProt Q12884); test: Release of free doxorubicin by cell-bound FAPα, HT1080 clone 33 cells; assay type: cell-based; conditions: 1 μM conjugate, serum-free medium, 19 hours at 37° C.
T5 construct: expressed in transfected cells; host or cells: HT1080 fibrosarcoma cells, clone 33
T5 sequence (Q12884 1-760): T1 sequence (Q12884 1-760)
Experimental: (§3) Mammalian cell lines expressing recombinant FAPα were prepared. HT1080 fibrosarcoma cells, widely known and available from the DSMZ (German Collection of Microorganisms and Cell Cultures, Braunschweig, Germany) under the accession number DSMZ ACC 315, were maintained in a DMEM/F12 mix 50:50 containing 10% fetal bovine serum in an atmosphere of 95% air and 5% CO2. HT1080 cells were transfected with FAP.38 vector (WO 97/34927, Scanlan et al., loc. cit.) using the Lipofectin method according to the manufacturer's instructions (Gibco/BRL). Transfectants were selected for resistance to antibiotics (200 μg/ml Geneticin) and thereafter maintained in medium containing Geneticin. Individual colonies of resistant cells were picked, grown to confluence in 10 cm tissue culture petri dishes and tested for FAPα expression in an immunofluorescence assay using the FAPα-specific monoclonal antibody F19, as described (Garin-Chesa et al. (1990) Proc. Natl. Acad. Sci. USA 87(18), 7235-7239).
(§4) Samples were separated by reversed-phase high performance liquid chromatographic (HPLC) assay that was established to measure cleavage of doxorubicin-peptide conjugates. […] Free doxorubicin and doxorubicin-peptide conjugates were detected by fluorescence (excitation, 475 nm; emission, 585 nm) using a Waters 474 fluorescence detector. […]

[7] = system: parental HT1080 cell line; conditions: 1 μM conjugate, serum-free medium, 19 hours at 37° C.
Experimental: as §3, §4

Sequence of DPP-IV (P27487 whole entry, species assumed): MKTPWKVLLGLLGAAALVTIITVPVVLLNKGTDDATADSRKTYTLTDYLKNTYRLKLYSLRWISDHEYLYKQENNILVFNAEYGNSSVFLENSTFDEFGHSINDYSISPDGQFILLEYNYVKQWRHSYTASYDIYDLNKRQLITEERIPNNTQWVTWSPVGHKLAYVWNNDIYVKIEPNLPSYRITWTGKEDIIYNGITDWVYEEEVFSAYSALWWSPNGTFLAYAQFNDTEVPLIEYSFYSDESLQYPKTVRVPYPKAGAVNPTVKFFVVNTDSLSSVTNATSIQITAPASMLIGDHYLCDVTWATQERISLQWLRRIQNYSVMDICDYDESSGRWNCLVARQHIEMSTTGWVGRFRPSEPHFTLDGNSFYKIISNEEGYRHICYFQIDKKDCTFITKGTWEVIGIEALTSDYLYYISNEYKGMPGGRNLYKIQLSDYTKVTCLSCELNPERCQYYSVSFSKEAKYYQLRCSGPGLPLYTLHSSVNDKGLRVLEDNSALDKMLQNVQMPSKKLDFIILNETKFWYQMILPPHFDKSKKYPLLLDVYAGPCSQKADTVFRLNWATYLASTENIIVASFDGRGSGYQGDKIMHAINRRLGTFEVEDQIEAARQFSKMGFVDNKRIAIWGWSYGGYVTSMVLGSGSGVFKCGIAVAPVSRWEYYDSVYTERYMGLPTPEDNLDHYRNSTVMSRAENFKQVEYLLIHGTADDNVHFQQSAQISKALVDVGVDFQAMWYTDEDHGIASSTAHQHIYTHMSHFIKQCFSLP
T4 sequence (P01731+Q12884 fused): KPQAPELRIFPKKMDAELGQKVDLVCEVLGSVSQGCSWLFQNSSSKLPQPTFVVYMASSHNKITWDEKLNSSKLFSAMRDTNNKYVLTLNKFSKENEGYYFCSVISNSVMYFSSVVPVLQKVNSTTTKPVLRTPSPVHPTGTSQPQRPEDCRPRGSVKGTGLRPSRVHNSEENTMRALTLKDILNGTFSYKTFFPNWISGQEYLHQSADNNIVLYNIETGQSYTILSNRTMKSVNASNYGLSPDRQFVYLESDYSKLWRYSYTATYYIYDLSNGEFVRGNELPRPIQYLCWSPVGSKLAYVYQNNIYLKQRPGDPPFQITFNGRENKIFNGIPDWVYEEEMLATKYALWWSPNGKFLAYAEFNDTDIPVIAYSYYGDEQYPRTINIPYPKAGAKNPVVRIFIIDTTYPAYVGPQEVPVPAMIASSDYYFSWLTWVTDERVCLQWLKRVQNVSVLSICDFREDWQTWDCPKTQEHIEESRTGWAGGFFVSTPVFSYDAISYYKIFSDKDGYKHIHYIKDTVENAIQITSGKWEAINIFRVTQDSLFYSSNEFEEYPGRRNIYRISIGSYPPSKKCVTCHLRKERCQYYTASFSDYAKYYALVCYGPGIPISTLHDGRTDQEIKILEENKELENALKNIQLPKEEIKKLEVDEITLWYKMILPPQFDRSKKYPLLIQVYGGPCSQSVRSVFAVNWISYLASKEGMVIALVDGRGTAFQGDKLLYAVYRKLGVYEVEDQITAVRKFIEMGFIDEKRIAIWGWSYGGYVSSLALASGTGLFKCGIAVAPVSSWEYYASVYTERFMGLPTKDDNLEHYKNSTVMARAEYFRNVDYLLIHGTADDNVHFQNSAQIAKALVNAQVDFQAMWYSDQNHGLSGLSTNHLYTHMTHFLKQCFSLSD

C[C@H](N)C(=O)N1CCC[C@H]1C(=O)Nc1ccc2c(C(F)(F)F)cc(=O)oc2c1 [Ala-Pro-7-amino-4-trifluoromethyl coumarin] (H-Ala-Pro-{AFC})
cleavage by FAPα dimers [1]: able to cleave

COc1cc(NC(=O)C2CCCN2C(=O)C(C)N)cc2ccccc12 (stereo not drawn) [Ala-Pro-MNA]
Kcat [2]: 35.7 s⁻¹
Km [2]: 267 µM
Cleavage specificity FAP [3]: +
Cleavage specificity DPP IV [4]: +

COc1cc(NC(=O)[C@@H]2CCCN2C(=O)[C@@H](N)CCCNC(=N)N)cc2ccccc12 [Arg-Pro-MNA]
Kcat [2]: 50.6 s⁻¹
Km [2]: 278 µM

COc1cc(NC(=O)[C@@H]2CCCN2C(=O)[C@@H](N)C2CCCCC2)cc2ccccc12 [Chg-Pro-MNA]
Kcat [2]: 53.7 s⁻¹
Km [2]: 75 µM

COc1cccc2c1C(=O)c1c(O)c3c(c(O)c1C2=O)CC(O)(C(=O)CO)CC3OC1CC(NC(=O)C2CCCN2C(=O)CNC(=O)C(C)NC(=O)C2CCCN2C(=O)OCC2c3ccccc3-c3ccccc32)C(O)C(C)O1 (stereo not drawn) [Fmoc-Pro-Ala-Gly-, Fmoc-Pro-Ala-Gly-Pro-Dox]
Cleavage by FAP [5]: >95%

COc1cc(NC(=O)[C@@H]2CCCN2C(=O)[C@@H](N)CCC(N)=O)cc2ccccc12 [Gln-Pro-MNA]
Kcat [2]: 40.5 s⁻¹
Km [2]: 273 µM

NCC(=O)N1CCC[C@H]1C(=O)Nc1ccc2c(C(F)(F)F)cc(=O)oc2c1 [Gly-Pro-7-amino-4-trifluoromethyl coumarin] (H-Gly-Pro-{AFC})
cleavage by FAPα dimers [1]: able to cleave

COc1cccc2c1C(=O)c1c(O)c3c(c(O)c1C2=O)CC(O)(C(=O)CO)CC3OC1CC(NC(=O)C2CCCN2C(=O)C(N)C2CCCCC2)C(O)C(C)O1 (stereo not drawn) [H-Chg-, H-Chg-Pro-Dox]
Cleavage by FAP [5]: >95%

COc1cccc2c1C(=O)c1c(O)c3c(c(O)c1C2=O)CC(O)(C(=O)CO)CC3OC1CC(NC(=O)C2CCCN2C(=O)CNC(=O)C(C)NC(=O)C2CCCN2)C(O)C(C)O1 (stereo not drawn) [H-Pro-Ala-Gly-, H-Pro-Ala-Gly-Pro-Dox]
Cleavage by FAP [5]: ca. 11%

COc1cc(NC(=O)[C@@H]2CCCN2C(=O)[C@@H](N)CCCCO)cc2ccccc12 [Hyn-Pro-MNA]
Kcat [2]: 27.4 s⁻¹
Km [2]: 69 µM

CC[C@H](C)[C@H](N)C(=O)N1CCC[C@H]1C(=O)Nc1cc(OC)c2ccccc2c1 [Ile-Pro-MNA]
Kcat [2]: 12.6 s⁻¹
Km [2]: 43 µM

NCCCC[C@H](N)C(=O)N1CCC[C@H]1C(=O)Nc1ccc2c(C(F)(F)F)cc(=O)oc2c1 [Lys-Pro-7-amino-4-trifluoromethyl coumarin] (H-Lys-Pro-{AFC})
cleavage by FAPα dimers [1]: able to cleave

COc1cc(NC(=O)C2CCCN2C(=O)C(N)CCCCN)cc2ccccc12 (stereo not drawn) [Lys-Pro-MNA]
Kcat [2]: 57.1 s⁻¹
Km [2]: 530 µM

COc1cc(NC(=O)[C@@H]2CCCN2C(=O)[C@@H](N)CC[S+](C)[O-])cc2ccccc12 (stereo partly drawn) [Met(O)-Pro-MNA]
Kcat [2]: 26.9 s⁻¹
Km [2]: 378 µM

COc1cc(NC(=O)[C@@H]2CCCN2C(=O)[C@@H](N)CCSC)cc2ccccc12 [Met-Pro-MNA]
Kcat [2]: 27.9 s⁻¹
Km [2]: 127 µM

COc1cc(NC(=O)[C@@H]2CCCN2C(=O)[C@@H]2CCCN2)cc2ccccc12 [Pro-Pro-MNA, Pro-Pro-4-methoxy-β-naphthylamide]
Kcat [2]: 49.5 s⁻¹
Km [2]: 154 µM

COc1cc(NC(=O)[C@@H]2CCCN2C(=O)[C@@H](N)CO)cc2ccccc12 [Ser-Pro-MNA]
Kcat [2]: 28.3 s⁻¹
Km [2]: 872 µM

COc1cc(NC(=O)[C@@H]2CCCN2C(=O)[C@@H](N)C(C)C)cc2ccccc12 [Val-Pro-MNA]
Kcat [2]: 27.7 s⁻¹
Km [2]: 95 µM

COc1cc(NC(=O)C2CCCN2C(=O)CNC(=O)OCc2ccccc2)cc2ccccc12 (stereo not drawn) [Z-Gly-Pro-MNA]
Cleavage specificity FAP [3]: +
Cleavage specificity DPP IV [4]: −

COc1cc(NC(=O)C2CCCN2C(=O)CNC(=O)C(C)NC(=O)C2CCCN2C(=O)OCc2ccccc2)cc2ccccc12 (stereo not drawn) [Z-Pro-Ala-Gly-Pro-MNA] (Cbz-PAGP-{NH(4-MeO-2-naphthyl)}; configuration not given here)
Cleavage specificity FAP [3]: +
Cleavage specificity DPP IV [4]: −

COc1cccc2c1C(=O)c1c(O)c3c(c(O)c1C2=O)C[C@@](O)(C(=O)CO)C[C@@H]3O[C@H]1C[C@H](NC(=O)[C@@H]2CCCN2C(=O)CNC(=O)OCc2ccccc2)[C@H](O)[C@H](C)O1 [ZGP-Dox, N-Cbz-Gly-Pro-Doxorubicin]
conversion of conjugate to free doxorubicin after incubation with purified FAPmCD8 fusion protein ([5]; 37° C., 1 day, approximately 20 ng FAPmCD8, Hepes-buffered saline pH 7.4, HPLC (FIG. 1)): could be converted to free doxorubicin
Cleavage by FAP [5]: >95%
conversion of conjugate to free doxorubicin by HT1080 clone 33 [6]: 81%
conversion of conjugate to free doxorubicin by parental HT1080 cell line [7]: 9%

COc1cccc2c1C(=O)c1c(O)c3c(c(O)c1C2=O)CC(O)(C(=O)CO)CC3OC1CC(NC(=O)C2CCCN2C(=O)CNC(=O)C(C)NC(=O)C2CCCN2C(=O)OCc2ccccc2)C(O)C(C)O1 (stereo not drawn) [ZPAGP-Dox, N-Cbz-Pro-Ala-Gly-Pro-Doxorubicin]
Cleavage by FAP [5]: >95%
conversion of conjugate to free doxorubicin by HT1080 clone 33 [6]: 43%
conversion of conjugate to free doxorubicin by parental HT1080 cell line [7]: Little or no detectable conversion

COc1cc(NC(=O)[C@@H]2CCCN2C(=O)[C@@H]2C[C@@H](O)CN2)cc2ccccc12 [trans-Hyp-Pro-MNA]
Kcat [2]: 37.9 s⁻¹
Km [2]: 254 µM
